We go through 4 molecules from ChEMBL document CHEMBL1129843, “Synthesis of a pyrimido[4,5-b]azepine analog of 5,10-dideaza-5,6,7,8-tetrahydrofolic acid (DDATHF)” (Bioorg Med Chem Lett, 1997).

The target in data set [1] is T1, Trifunctional purine biosynthetic protein adenosine-3 (Mus musculus, UniProt Q64737).
T1 sequence (Q64737 whole entry): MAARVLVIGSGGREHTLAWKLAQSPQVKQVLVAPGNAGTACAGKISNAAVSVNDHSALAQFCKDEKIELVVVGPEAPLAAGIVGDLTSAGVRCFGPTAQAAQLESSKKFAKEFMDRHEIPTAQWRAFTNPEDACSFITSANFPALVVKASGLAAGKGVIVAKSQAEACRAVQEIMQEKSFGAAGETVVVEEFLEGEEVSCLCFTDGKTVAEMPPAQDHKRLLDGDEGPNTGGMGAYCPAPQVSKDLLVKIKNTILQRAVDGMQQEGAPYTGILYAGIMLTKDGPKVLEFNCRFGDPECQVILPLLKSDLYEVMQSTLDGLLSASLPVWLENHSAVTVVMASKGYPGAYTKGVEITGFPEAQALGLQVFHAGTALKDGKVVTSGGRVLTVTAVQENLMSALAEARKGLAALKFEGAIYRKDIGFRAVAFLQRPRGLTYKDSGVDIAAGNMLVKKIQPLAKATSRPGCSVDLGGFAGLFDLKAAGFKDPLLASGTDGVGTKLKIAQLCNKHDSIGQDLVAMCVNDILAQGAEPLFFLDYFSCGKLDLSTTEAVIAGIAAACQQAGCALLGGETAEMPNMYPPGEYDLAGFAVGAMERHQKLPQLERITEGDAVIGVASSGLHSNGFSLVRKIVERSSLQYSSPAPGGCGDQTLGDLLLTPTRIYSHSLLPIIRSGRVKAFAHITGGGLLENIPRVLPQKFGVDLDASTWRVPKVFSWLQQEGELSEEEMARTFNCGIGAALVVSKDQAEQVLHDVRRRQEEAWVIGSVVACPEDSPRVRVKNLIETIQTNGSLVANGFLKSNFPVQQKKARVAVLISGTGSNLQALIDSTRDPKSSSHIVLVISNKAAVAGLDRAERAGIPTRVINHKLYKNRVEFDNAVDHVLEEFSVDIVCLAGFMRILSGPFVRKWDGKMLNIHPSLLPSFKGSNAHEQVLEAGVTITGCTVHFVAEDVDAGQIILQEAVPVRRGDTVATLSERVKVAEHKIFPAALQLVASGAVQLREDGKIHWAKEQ
Description: Tested in vitro for its inhibition of trifunctional glycinamide ribonucleotide formyltransferase (GARFT) isolated from murine L1210 leukemia cells.

A further data set deals with CCRF-CEM. Description: Tested in vitro for cellular cytotoxicity against human T-cell derived lymphoblastic leukemia (CCRF-CEM) cells. Type of data set: functional, cell-based.
Data set [2] deals with T2, Folylpolyglutamate synthase, mitochondrial (Homo sapiens) (UniProt Q05932).
T2 sequence (whole entry): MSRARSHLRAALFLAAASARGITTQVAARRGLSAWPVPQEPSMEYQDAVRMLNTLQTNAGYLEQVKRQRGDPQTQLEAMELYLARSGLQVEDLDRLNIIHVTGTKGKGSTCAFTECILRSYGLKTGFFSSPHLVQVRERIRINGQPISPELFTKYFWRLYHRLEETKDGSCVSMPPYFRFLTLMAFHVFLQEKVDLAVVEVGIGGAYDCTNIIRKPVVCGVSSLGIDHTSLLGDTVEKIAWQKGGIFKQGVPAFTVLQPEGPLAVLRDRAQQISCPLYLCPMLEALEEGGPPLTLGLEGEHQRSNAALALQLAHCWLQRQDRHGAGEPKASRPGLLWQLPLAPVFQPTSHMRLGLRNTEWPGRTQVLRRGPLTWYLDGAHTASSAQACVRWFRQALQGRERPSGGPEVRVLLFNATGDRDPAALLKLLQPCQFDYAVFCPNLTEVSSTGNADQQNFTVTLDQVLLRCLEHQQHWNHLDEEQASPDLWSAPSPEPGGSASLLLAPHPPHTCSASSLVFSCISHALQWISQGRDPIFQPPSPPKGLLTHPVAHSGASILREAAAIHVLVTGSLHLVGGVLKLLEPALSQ
The experiment in a line: Ratio of Vmax to Km value and expressed as k'. The following applies: Sus scrofa.

Substrate in data set [3]: Nc1cc2c(c(O)n1)CC(CCc1ccc(C(=O)N[C@@H](CCC(=O)O)C(=O)O)cc1)CCN2
Description: In vitro Folyl-poly-gamma-glutamyl synthetase (FPGS) affinity
The following applies: Sus scrofa.

In data set [1], `Nc1nc2c(c(=O)[nH]1)C[C@@H](CCc1ccc(C(=O)N[C@@H](CCC(=O)O)C(=O)O)cc1)CN2` [LOMETREXOL] returned a Ki of 59.7 nM. Also, the IC50 in the data set with CCRF-CEM was 15.2 nM. In data set [2], the k' was 59.

Take `Nc1cc2c(c(O)n1)CC(CCc1ccc(C(=O)N[C@@H](CCC(=O)O)C(=O)O)cc1)CCN2` (some centres undefined): the Ki in data set [1] is 147 nM. Moreover, the IC50 with CCRF-CEM came out at 47 nM. Further, in data set [2], the k' amounted to 20.

`Nc1nc2c(c(=O)[nH]1)C[C@H](CCc1ccc(C(=O)NC(CCC(=O)O)C(=O)O)cc1)CN2` (some centres undefined) showed a Ki in data set [1] of 120 nM. The same molecule gave an IC50 with CCRF-CEM of 16 nM.

B1: Folylpolyglutamate synthase, mitochondrial (Homo sapiens), Q05932 (protein)
chain: T2 sequence (whole entry)
Consider B1, for which, in data set [3], the Km stood at 39 µM.

The Ki is a dissociation constant, usually derived from enzyme kinetics or from competition with a known ligand. Read a low Ki as a stronger hold on the target. A word on the IC50: it is the concentration at which inhibition is half-maximal. High values mean a need for much substance, low ones inhibition by little substance. A word on the Km: it is the concentration of substrate that gives half-maximal velocity.
